Measurements: paper PMC3894558, “Chemical signatures and new drug targets for gametocytocidal drug development” (Scientific Reports, 2014)
Read-outs that look alike come from different tables or passages of the source.

System: P. falciparum 3D7 gametocytes
Test: alamarBlue gametocyte viability assay, strain 3D7
Assay type: cell-based, Plasmodium falciparum
Conditions: Malaria Box; for Max Resp: DMSO set at 0%, 100 nM epoxomicin set at -100%; for Curve Class / IC50: stages III-V 3D7 gametocytes; for IC50: 11 concentrations, 1:3 dilution; call rule not given here

Row | Structure (SMILES) | Max Resp [%] | Curve Class | IC50 | IC50 (read-out: IC50) [µM]
1 | COc1cc(SC)ccc1C(=O)N1CCCC(C)C1 (stereo not drawn) [MMV056726] | -5 | 4 | Inactive | –
2 | CN(C)c1ccc(N=Cc2ccc(N3CCOCC3)cc2)cc1 [MMV073843] | -98 | -1.1 | – | 2.35
3 | CCOc1ccc(C2N(C)c3ccccc3N2C)cc1 [MMV075490] | -38 | -2.2 | Inactive | –
4 | Nc1nc(Nc2cccc(F)c2)nc2ccccc12 [MMV080034] | -61 | -2.2 | – | 29.6
5 | COc1ccc(C=C2SC(Nc3ccc(F)cc3)=NC2=O)c(OC)c1 [MMV084434] | -24 | 4 | Inactive | –
6 | COc1cc2c(cc1OC)C1=NNC(=O)C1=NC(C)(C)C2 [MMV084940] | -133 | -1.1 | – | 1.32
7 | COc1ccccc1NC1=C(N2CCCCC2)C(=O)c2ccccc2C1=O [MMV085203] | -97 | -2.1 | – | 7.43
8 | CCOc1ccc(-n2cc(-c3ccccc3)c3c(SCc4cc(C)ccc4C)ncnc32)cc1 [MMV085471] | 1 | 4 | Inactive | –
9 | Cc1ccc(C(=O)c2oc3ccc4c(C)cc(=O)oc4c3c2C)cc1 [MMV086103] | 0 | 4 | Inactive | –
10 | COc1cc(CNCCc2ccc(Cl)cc2)cc(OC)c1O [MMV128432] | -81 | -2.1 | – | 11.8
11 | CC(C)(C)c1ccc(C(=O)Nc2nc3ccccc3s2)cc1 [MMV142383] | -10 | 4 | Inactive | –
12 | COc1ccc2nc(C)cc(Nc3ccccc3O)c2c1 [MMV274073] | -66 | -2.2 | – | 23.5
13 | CCN(CC)CCNc1ncnc2c1[nH]c1ccc(Br)cc12 [MMV305841] | -95 | -1.1 | – | 5.26
14 | CCn1nc(-c2ccc(C(=O)OC)cc2)nc2c(=O)n(C)c(=O)nc1-2 [MMV306025] | -98 | -1.1 | – | 4.69
15 | COc1ccc(-c2nc(N3CCN(C(=O)C4CCCCC4)CC3)c3c4c(sc3n2)CCCC4)cc1 [MMV396594] | -12 | 4 | Inactive | –
16 | CCOc1c(Cl)cc(CNCC(O)c2ccccc2)cc1OC (stereo not drawn) [MMV396632] | -76 | -2.2 | – | 9.35
17 | CCOc1cc(CNC(C)C(O)c2ccccc2)cc(Cl)c1OCC (stereo not drawn) [MMV396633] | -72 | -2.2 | – | 11.8
18 | O=C(NC1CCN(Cc2ccccc2)CC1)c1cc2nc(-c3ccc(Cl)s3)cc(C(F)(F)F)n2n1 [MMV396635] | -24 | 4 | Inactive | –
19 | Cc1sc(NC(=O)c2ccccc2)c(C(c2cccs2)N2CCN(c3ccccc3)CC2)c1C (stereo not drawn) [MMV396652] | -1 | 4 | Inactive | –
20 | Cc1sc(NC(=O)c2ccco2)c(C(c2cccnc2)N2CCC(Cc3ccccc3)CC2)c1C (stereo not drawn) [MMV396663] | -85 | -2.1 | – | 16.6
21 | CCOC(=O)c1c(C)n(-c2ccccc2)c2ccc(OC(=O)c3cc(OC)c(OC)c(OC)c3)cc12 [MMV396664] | -4 | 4 | Inactive | –
22 | COc1cc(C(=O)Nc2nc3c(cc4c5c(cccc53)CC4)s2)cc(OC)c1OC [MMV396665] | -24 | 4 | Inactive | –
23 | Cc1cc(N2CCCC2)nc(Nc2ccc(NC(=O)CCc3ccccc3)cc2)n1 [MMV396669] | -75 | -2.2 | – | 11.8
24 | O=C(NCC(c1ccsc1)N1CCCCCC1)c1ccc(C(F)(F)F)cc1 (stereo not drawn) [MMV396672] | -37 | -2.2 | Inactive | –

Row | Structure (SMILES) | Max Resp [%] | Curve Class | IC50 | IC50 (read-out: IC50) [µM]
25 | COc1ccc(-c2cc3c(SCC(=O)Nc4cc(C(F)(F)F)ccc4Cl)nccn3n2)cc1 [MMV396679] | 0 | 4 | Inactive | –
26 | Cc1ccc(-c2cc3c(SCC(=O)Nc4cc(C(F)(F)F)ccc4Cl)nccn3n2)cc1 [MMV396680] | -21 | 4 | Inactive | –
27 | Cc1cc(NC(=O)c2cccc(C(F)(F)F)c2)n(-c2nc(-c3ccc4c(c3)OCO4)cs2)n1 [MMV396681] | -3 | 4 | Inactive | –
28 | C[n+]1c2ccccc2nc2ccc(NCCO)cc21 [MMV396693] | -85 | -1.1 | – | 2.96
29 | CCN(CC)CCNc1ncnc2c1[nH]c1ccc(Cl)cc12 [MMV396703] | -81 | -1.1 | – | 3.72
30 | CN1CCN(c2ncnc3c2[nH]c2ccc(Cl)cc23)CC1 [MMV396704] | -57 | -2.2 | – | 37.2
31 | COc1cccc(Cn2c(Oc3ccccc3)nc3c2c(=O)n(C)c(=O)n3C)c1 [MMV396705] | -1 | 4 | Inactive | –
32 | CC1(c2ccccc2)Nc2ccccc2-c2nc3ccccc3n21 (stereo not drawn) [MMV396715] | -84 | -2.1 | – | 16.6
33 | COc1ccc(CCN2C(=O)c3[nH]nc(-c4cc(Cl)c(C)cc4O)c3C2c2ccccc2F)cc1 (stereo not drawn) [MMV396717] | -70 | -2.2 | – | 23.5
34 | COc1cccc(C2(C)Nc3ccccc3-c3nc4ccccc4n32)c1 (stereo not drawn) [MMV396719] | -71 | -2.2 | – | 23.5
35 | N=c1n(CCN2CCCCC2)c2ccccc2n1CC(=O)c1ccc(Cl)c(Cl)c1 [MMV396723] | -92 | -2.1 | – | 14.8
36 | N#Cc1nc(Cc2cccc3ccccc23)oc1N1CCN(C(c2ccccc2)c2ccccc2)CC1 [MMV396726] | -1 | 4 | Inactive | –
37 | OC(CNCC1CCCO1)Cn1c2ccc(Cl)cc2c2cc(Cl)ccc21 (stereo not drawn) [MMV396736] | -70 | -2.2 | – | 23.5
38 | CC(C)CNC(=O)c1c(N)n(CCc2ccccc2F)c2nc3ccccc3nc12 [MMV396744] | -70 | -1.2 | – | 3.32
39 | COc1ccc2c(c1)C1(Nc3ccccc3-c3nc4ccccc4n31)C(=O)N2 (stereo not drawn) [MMV396749] | -61 | -2.2 | – | 18.7
40 | O=C(NNc1cc(N2CCCC2)nc(N2CCCC2)n1)c1ccccc1 [MMV396770] | -93 | -2.1 | – | 10.5
41 | CC(C)(C)CC(C)(C)NCC(O)COc1ccc(Cl)cc1Cl (stereo not drawn) [MMV396794] | -106 | -1.1 | – | 2.96
42 | COc1ccc(-c2c(C)nn3c(N)c(C#N)cnc23)cc1OC [MMV396797] | -90 | -1.1 | – | 6.62
43 | Cc1cccc(-n2ncc3c(O)nc(-n4nc(C)cc4NC(=O)c4cc5ccccc5o4)nc32)c1 [MMV403679] | -64 | -2.2 | – | 18.7
44 | CCOC(=O)c1c[nH]c2c(CC)cccc2c1=O [MMV498479] | 28 | 4 | Inactive | –
45 | Nc1ccn([C@@H]2O[C@H](CO)[C@@H](O)[C@H]2O)c(=O)n1 [MMV638723] | -5 | 4 | Inactive | –
46 | C=CC12CCN(CC1)C(C(O)c1ccnc3ccc(OC)cc13)C2.Cl (stereo not drawn) [MMV665782] | -31 | -1.2 | – | 0.209
47 | CCN(CC)CCCNc1ccnc2cc3ccccc3cc12 [MMV665783] | -50 | -2.2 | Inactive | –
